From the NIST ThermoML archive (doi:10.1021/je7003929)

Assay: xn = mol fraction of the nth substance listed
Conditions: Liquid, Vibrating tube method

c1ccc2sccc2c1 [benzo[b]thiophene] + CCCCCC
Conditions	mass density [kg/m3]
352.41 K, 1015 kPa, x2 = 0.0629	1076.7
352.41 K, 2020 kPa, x2 = 0.0629	1077.4
352.41 K, 3016 kPa, x2 = 0.0629	1078.1
352.41 K, 4038 kPa, x2 = 0.0629	1078.8
352.41 K, 5000 kPa, x2 = 0.0629	1079.5
352.41 K, 6001 kPa, x2 = 0.0629	1080.4
352.41 K, 7017 kPa, x2 = 0.0629	1081.1
352.41 K, 8008 kPa, x2 = 0.0629	1082
352.41 K, 9017 kPa, x2 = 0.0629	1082.6
352.41 K, 10026 kPa, x2 = 0.0629	1083.4
352.41 K, 11018 kPa, x2 = 0.0629	1084.1
352.41 K, 12014 kPa, x2 = 0.0629	1084.7
352.41 K, 13014 kPa, x2 = 0.0629	1085.4
352.41 K, 14022 kPa, x2 = 0.0629	1086.2
352.41 K, 15028 kPa, x2 = 0.0629	1086.8
352.41 K, 16020 kPa, x2 = 0.0629	1087.6
352.41 K, 17023 kPa, x2 = 0.0629	1088.2
352.41 K, 18015 kPa, x2 = 0.0629	1088.8
352.41 K, 19016 kPa, x2 = 0.0629	1089.5
352.41 K, 20019 kPa, x2 = 0.0629	1090.2
352.53 K, 1025 kPa, x2 = 0.9432	630.4
352.53 K, 1026 kPa, x2 = 0.7491	725.1
352.53 K, 2023 kPa, x2 = 0.9432	632.1
352.53 K, 2026 kPa, x2 = 0.7491	726.5
352.53 K, 3024 kPa, x2 = 0.7491	727.8
352.53 K, 3030 kPa, x2 = 0.9432	633.8
352.53 K, 4018 kPa, x2 = 0.9432	635.4
352.53 K, 4034 kPa, x2 = 0.7491	729.2
352.53 K, 5014 kPa, x2 = 0.7491	730.5
352.53 K, 5021 kPa, x2 = 0.9432	637
352.53 K, 6018 kPa, x2 = 0.9432	638.5
352.53 K, 6040 kPa, x2 = 0.7491	731.8
352.53 K, 7010 kPa, x2 = 0.9432	639.9
352.53 K, 7028 kPa, x2 = 0.7491	733
352.53 K, 8017 kPa, x2 = 0.7491	734.3
352.53 K, 8018 kPa, x2 = 0.9432	641.4
352.53 K, 9003 kPa, x2 = 0.7491	735.5
352.53 K, 9044 kPa, x2 = 0.9432	642.8
352.53 K, 10008 kPa, x2 = 0.7491	736.7
352.53 K, 10011 kPa, x2 = 0.9432	644.2
352.53 K, 11016 kPa, x2 = 0.7491	737.9
352.53 K, 11022 kPa, x2 = 0.9432	645.5
352.53 K, 12002 kPa, x2 = 0.7491	739
352.53 K, 12013 kPa, x2 = 0.9432	646.9
352.53 K, 13005 kPa, x2 = 0.9432	648.2
352.53 K, 13020 kPa, x2 = 0.7491	740.2
352.53 K, 14000 kPa, x2 = 0.9432	649.5
352.53 K, 14016 kPa, x2 = 0.7491	741.3
352.53 K, 15021 kPa, x2 = 0.9432	650.8
352.53 K, 15037 kPa, x2 = 0.7491	742.5
352.53 K, 16022 kPa, x2 = 0.9432	652
352.53 K, 16035 kPa, x2 = 0.7491	743.6
352.53 K, 17001 kPa, x2 = 0.9432	653.2
352.53 K, 17020 kPa, x2 = 0.7491	744.6
352.53 K, 18013 kPa, x2 = 0.9432	654.4
352.53 K, 18020 kPa, x2 = 0.7491	745.7
352.53 K, 19007 kPa, x2 = 0.9432	655.6
352.53 K, 19008 kPa, x2 = 0.7491	746.7
352.53 K, 20019 kPa, x2 = 0.7491	747.8
352.53 K, 20039 kPa, x2 = 0.9432	656.7
352.63 K, 1037 kPa, x2 = 0.4495	874.2
352.63 K, 2029 kPa, x2 = 0.4495	875.3
352.63 K, 3026 kPa, x2 = 0.4495	876.4
352.63 K, 4032 kPa, x2 = 0.4495	877.5
352.63 K, 5015 kPa, x2 = 0.4495	878.5
352.63 K, 6024 kPa, x2 = 0.4495	879.5
352.63 K, 7028 kPa, x2 = 0.4495	880.5
352.63 K, 8017 kPa, x2 = 0.4495	881.5
352.63 K, 9003 kPa, x2 = 0.4495	882.5
352.63 K, 10022 kPa, x2 = 0.4495	883.5
352.63 K, 11024 kPa, x2 = 0.4495	884.5
352.63 K, 12013 kPa, x2 = 0.4495	885.4
352.63 K, 13038 kPa, x2 = 0.4495	886.4
352.63 K, 14000 kPa, x2 = 0.4495	887.3
352.63 K, 15021 kPa, x2 = 0.4495	888.2
352.63 K, 16012 kPa, x2 = 0.4495	889.1
352.63 K, 17010 kPa, x2 = 0.4495	890
352.63 K, 18015 kPa, x2 = 0.4495	890.9
352.63 K, 19022 kPa, x2 = 0.4495	891.8
352.63 K, 20005 kPa, x2 = 0.4495	892.7
362.31 K, 1028 kPa, x2 = 0.9432	620.3
362.31 K, 2031 kPa, x2 = 0.9432	622.2
362.31 K, 3031 kPa, x2 = 0.9432	624
362.31 K, 4012 kPa, x2 = 0.9432	625.7
362.31 K, 5026 kPa, x2 = 0.9432	627.4
362.31 K, 6013 kPa, x2 = 0.9432	629.1
362.31 K, 7022 kPa, x2 = 0.9432	630.7
362.31 K, 8014 kPa, x2 = 0.9432	632.3
362.31 K, 9000 kPa, x2 = 0.9432	633.7
362.31 K, 10011 kPa, x2 = 0.9432	635.3
362.31 K, 11007 kPa, x2 = 0.9432	636.7
362.31 K, 12007 kPa, x2 = 0.9432	638.2
362.31 K, 13008 kPa, x2 = 0.9432	639.6
362.31 K, 14024 kPa, x2 = 0.9432	640.9
362.31 K, 15002 kPa, x2 = 0.9432	642.3
362.31 K, 16016 kPa, x2 = 0.9432	643.6
362.31 K, 17000 kPa, x2 = 0.9432	644.9
362.31 K, 18008 kPa, x2 = 0.9432	646.3
362.31 K, 19018 kPa, x2 = 0.9432	647.5
362.31 K, 20028 kPa, x2 = 0.9432	648.8
362.33 K, 1020 kPa, x2 = 0.7491	715.3
362.33 K, 2034 kPa, x2 = 0.7491	716.8
362.33 K, 3013 kPa, x2 = 0.7491	718.3
362.33 K, 4007 kPa, x2 = 0.7491	719.7
362.33 K, 5015 kPa, x2 = 0.7491	721.2
362.33 K, 6018 kPa, x2 = 0.7491	722.5
362.33 K, 7015 kPa, x2 = 0.7491	723.9
362.33 K, 8017 kPa, x2 = 0.7491	725.2
362.33 K, 9024 kPa, x2 = 0.7491	726.5
362.33 K, 10010 kPa, x2 = 0.7491	727.8
362.33 K, 10996 kPa, x2 = 0.7491	729.1
362.33 K, 12027 kPa, x2 = 0.7491	730.4
362.33 K, 13022 kPa, x2 = 0.7491	731.6
362.33 K, 14016 kPa, x2 = 0.7491	732.8
362.33 K, 15023 kPa, x2 = 0.7491	734
362.33 K, 16012 kPa, x2 = 0.7491	735.1
362.33 K, 17011 kPa, x2 = 0.7491	736.3
362.33 K, 18012 kPa, x2 = 0.7491	737.4
362.33 K, 19030 kPa, x2 = 0.7491	738.6
362.33 K, 20017 kPa, x2 = 0.7491	739.7
362.5 K, 1028 kPa, x2 = 0.4495	864.8
362.5 K, 2025 kPa, x2 = 0.4495	866
362.5 K, 3020 kPa, x2 = 0.4495	867.1
362.5 K, 4000 kPa, x2 = 0.4495	868.2
362.5 K, 5045 kPa, x2 = 0.4495	869.3
362.5 K, 6017 kPa, x2 = 0.4495	870.4
362.5 K, 7018 kPa, x2 = 0.4495	871.5
362.5 K, 8013 kPa, x2 = 0.4495	872.5
362.5 K, 9024 kPa, x2 = 0.4495	873.6
362.5 K, 10011 kPa, x2 = 0.4495	874.6
362.5 K, 11008 kPa, x2 = 0.4495	875.6
362.5 K, 12025 kPa, x2 = 0.4495	876.6
362.5 K, 13004 kPa, x2 = 0.4495	877.6
362.5 K, 14014 kPa, x2 = 0.4495	878.6
362.5 K, 15011 kPa, x2 = 0.4495	879.6
362.5 K, 16027 kPa, x2 = 0.4495	880.6
362.5 K, 17017 kPa, x2 = 0.4495	881.5
362.5 K, 18030 kPa, x2 = 0.4495	882.5
362.5 K, 19022 kPa, x2 = 0.4495	883.4
362.5 K, 20002 kPa, x2 = 0.4495	884.3
